Test results from publication PMC4887402 (Journal of inorganic biochemistry, 2015).
pKd: −log10 of the molar value.

Target: Cytochrome P450 CYP3A4 (Homo sapiens, UniProt P08684)
Assay: UV-VIS spectral titration
Assay type: binding

Chain of Cytochrome P450 CYP3A4 (P08684 whole entry): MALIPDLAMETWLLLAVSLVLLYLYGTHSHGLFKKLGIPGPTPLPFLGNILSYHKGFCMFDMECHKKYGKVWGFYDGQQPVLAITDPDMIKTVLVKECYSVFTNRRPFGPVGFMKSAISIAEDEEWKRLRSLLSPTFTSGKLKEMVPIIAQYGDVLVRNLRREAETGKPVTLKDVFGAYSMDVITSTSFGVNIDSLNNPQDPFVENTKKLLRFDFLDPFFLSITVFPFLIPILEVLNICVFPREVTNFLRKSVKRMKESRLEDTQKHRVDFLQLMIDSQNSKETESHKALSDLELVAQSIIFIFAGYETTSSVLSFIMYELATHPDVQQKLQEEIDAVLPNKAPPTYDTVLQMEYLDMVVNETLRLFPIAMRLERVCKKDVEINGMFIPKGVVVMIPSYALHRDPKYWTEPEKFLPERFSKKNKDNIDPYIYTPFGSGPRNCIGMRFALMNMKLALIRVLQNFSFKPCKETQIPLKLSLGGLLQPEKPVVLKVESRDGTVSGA

Row | Compound | pKd
1 | C[C@]12CC[C@H]3[C@@H]([C@H](C/C=C\C[C@@H]4CC5=CC(=O)CC[C@]5(C)[C@H]5CC[C@]6(C)[C@@H](O)CC[C@H]6[C@H]45)CC4=CC(=O)CC[C@@]43C)[C@@H]1CC[C@@H]2O [cis-TST2] | 6.52
2 | C[C@]12CC[C@H]3[C@@H]([C@H](C/C=C/C[C@@H]4CC5=CC(=O)CC[C@]5(C)[C@H]5CC[C@]6(C)[C@@H](O)CC[C@H]6[C@H]45)CC4=CC(=O)CC[C@@]43C)[C@@H]1CC[C@@H]2O [trans-TST2] | 5.10
